This assay has as its system Rh18 complex spheroid viability, percent test/control. The assay is described as follows: Anticancer human tumor Rh18 cell line growth inhibition [Asc].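 On all read-outs here: spheroids exposed to compound for 7 days.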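 On viability, T/C: 100% = DMSO vehicle control wells.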 The settings on record: for viability, T/C: stronger effect = lower value. The essentials:
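Spheroid model: tumor line + HUVEC + hMSC. Single agents and combinations; top conc. at/near clinical Cmax (10 microM if undetermined), half-log dilutions. DMSO stocks at 800-fold test concentration.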

Each structure is given as a SMILES string. pIC50: −log10 of the molar value. “And” between values parts separate entries of the source, which are not always exact repeats. Equal entries are not always repeated.

By pIC50 is commonly meant −log10 of the IC50, conventionally taken in molar units. The viability, T/C is the ratio of treated to control. In the case of `Cc1nc(N2CCC3(CC2)COC(C)C3N)c(CO)nc1Sc1ccnc(N)c1Cl` (stereo unspecified) + CNC(C)C(=O)NC1CN(S(=O)(=O)c2cccc(S(=O)(=O)N3CCC4CCC(C(=O)NC(c5ccccc5)c5ccccc5)N4C(=O)C(NC(=O)C(C)NC)C3)c2)CCC2CCC(C(=O)NC(c3ccccc3)c3ccccc3)N2C1=O, the pIC50 was 7.91 (curve of first compound, second compound 0.00316 µM); 7.73 (curve of first compound, second compound 0.01 µM); 7.91 (curve of first compound, second compound 0.0316 µM); 7.81 (curve of first compound, second compound 0.1 µM); above 8.02 (curve of first compound, second compound 0.316 µM); 7.94 (curve of first compound, second compound 1 µM). In addition, the viability, T/C (second compound 0.00316 µM, first compound 0.00949 µM) was 44.4%; the viability, T/C (second compound 0.00316 µM, first compound 0.03 µM) is 60%; the viability, T/C (second compound 0.00316 µM, first compound 0.0949 µM) is 34.7%; the viability, T/C (second compound 0.00316 µM, first compound 0.3 µM) was 33.7%; the viability, T/C (second compound 0.00316 µM, first compound 0.949 µM) was 23.2%; the viability, T/C (second compound 0.00316 µM, first compound 3 µM) was 12.9%. For the same compound, the viability, T/C is 56% (second compound 0.01 µM, first compound 0.00949 µM); 48.8% (second compound 0.01 µM, first compound 0.03 µM); 30.7% (second compound 0.01 µM, first compound 0.0949 µM); 25.8% (second compound 0.01 µM, first compound 0.3 µM); 23.2% (second compound 0.01 µM, first compound 0.949 µM); 14.9% (second compound 0.01 µM, first compound 3 µM). The viability, T/C reads like this: (second compound 0.0316 µM, first compound 0.00949 µM) 51.2%; (second compound 0.0316 µM, first compound 0.03 µM) 45.7%; (second compound 0.0316 µM, first compound 0.0949 µM) 31.2%; (second compound 0.0316 µM, first compound 0.3 µM) 23.3%; (second compound 0.0316 µM, first compound 0.949 µM) 23.4%; (second compound 0.0316 µM, first compound 3 µM) 16.1%. Besides, the viability, T/C is, setting by setting: (second compound 0.1 µM, first compound 0.00949 µM) 63%; (second compound 0.1 µM, first compound 0.03 µM) 32.3%; (second compound 0.1 µM, first compound 0.0949 µM) 22.9%; (second compound 0.1 µM, first compound 0.3 µM) 28.2%; (second compound 0.1 µM, first compound 0.949 µM) 21.9%; (second compound 0.1 µM, first compound 3 µM) 13.2%. In addition, the viability, T/C runs as follows: (second compound 0.316 µM, first compound 0.00949 µM) 45.9%; (second compound 0.316 µM, first compound 0.03 µM) 24.1%; (second compound 0.316 µM, first compound 0.0949 µM) 31.3%; (second compound 0.316 µM, first compound 0.3 µM) 25.5%; (second compound 0.316 µM, first compound 0.949 µM) 18.9%; (second compound 0.316 µM, first compound 3 µM) 13.9%. The viability, T/C is 54% (second compound 1 µM, first compound 0.00949 µM); 30% (second compound 1 µM, first compound 0.03 µM); 22% (second compound 1 µM, first compound 0.0949 µM); 22.8% (second compound 1 µM, first compound 0.3 µM); 37.9% (second compound 1 µM, first compound 0.949 µM); 16.7% (second compound 1 µM, first compound 3 µM).

In the case of `NC1CCC(NC2CC2c2ccccc2)CC1` (stereo unspecified), the viability, T/C (compound 0.000316 µM) was 135% and 130% and 96.5%; the viability, T/C (compound 0.001 µM) was 134% and 133% and 98%; the viability, T/C (compound 0.00316 µM) was 124% and 114% and 102%; the viability, T/C (compound 0.01 µM) was 120% and 114% and 103%; the viability, T/C (compound 0.0316 µM) was 120% and 98.2% and 110%; the viability, T/C (compound 0.1 µM) was 114% and 119% and 102%. Also, the pIC50 (curve of compound) is below 7.00.

For the compound `Cn1ncnc1[C@H]1c2n[nH]c(=O)c3cc(F)cc(c23)N[C@@H]1c1ccc(F)cc1` + CCN1C(C(=O)NC23CCC(C(=O)O)(CC2)CC3)C(c2cccc(Cl)c2F)C2(C(=O)Nc3cc(Cl)ccc32)C12CCCCC2, the pIC50 (curve of first compound, second compound 0.03 µM) was above 9.50; the pIC50 (curve of first compound, second compound 0.0949 µM) was above 9.50; the pIC50 (curve of first compound, second compound 0.3 µM) was above 9.50; the pIC50 (curve of first compound, second compound 0.949 µM) was above 9.50; the pIC50 (curve of first compound, second compound 3 µM) was above 9.50. Besides, the viability, T/C is, setting by setting: (second compound 0.03 µM, first compound 0.000316 µM) 39%; (second compound 0.03 µM, first compound 0.001 µM) 36.2%; (second compound 0.03 µM, first compound 0.00316 µM) 45.6%; (second compound 0.03 µM, first compound 0.01 µM) 36.1%; (second compound 0.03 µM, first compound 0.0316 µM) 39.4%; (second compound 0.03 µM, first compound 0.1 µM) 49%. In addition, the viability, T/C is 22.7% (second compound 0.0949 µM, first compound 0.000316 µM); 27.1% (second compound 0.0949 µM, first compound 0.001 µM); 25.6% (second compound 0.0949 µM, first compound 0.00316 µM); 26.6% (second compound 0.0949 µM, first compound 0.01 µM); 25.5% (second compound 0.0949 µM, first compound 0.0316 µM); 25.3% (second compound 0.0949 µM, first compound 0.1 µM). Moreover, the viability, T/C was 13.3% (second compound 0.3 µM, first compound 0.000316 µM); 15.4% (second compound 0.3 µM, first compound 0.001 µM); 13% (second compound 0.3 µM, first compound 0.00316 µM); 13.1% (second compound 0.3 µM, first compound 0.01 µM); 13.3% (second compound 0.3 µM, first compound 0.0316 µM); 13.3% (second compound 0.3 µM, first compound 0.1 µM). Also, the viability, T/C is, setting by setting: (second compound 0.949 µM, first compound 0.000316 µM) 11.1%; (second compound 0.949 µM, first compound 0.001 µM) 11.2%; (second compound 0.949 µM, first compound 0.00316 µM) 11.7%; (second compound 0.949 µM, first compound 0.01 µM) 10.4%; (second compound 0.949 µM, first compound 0.0316 µM) 9.91%; (second compound 0.949 µM, first compound 0.1 µM) 9.54%. In addition, the viability, T/C by setting is: (second compound 3 µM, first compound 0.000316 µM) 9.71%; (second compound 3 µM, first compound 0.001 µM) 9.49%; (second compound 3 µM, first compound 0.00316 µM) 9.33%; (second compound 3 µM, first compound 0.01 µM) 7.51%; (second compound 3 µM, first compound 0.0316 µM) 8.46%; (second compound 3 µM, first compound 0.1 µM) 7.12%.

On to `O=C(c1cc(Cc2n[nH]c(=O)c3ccccc23)ccc1F)N1CCN(C(=O)C2CC2)CC1`, for which the viability, T/C runs as follows: (compound 0.0316 µM) 108% and 86.4% and 91.5%; (compound 0.1 µM) 99.5% and 81.7% and 85.2%; (compound 0.316 µM) 59.4% and 79.7% and 82.2%; (compound 1 µM) 57.3% and 63.1% and 73.7%; (compound 3.16 µM) 44.9% and 53% and 35.5%; (compound 10 µM) 44.7% and 41.7% and 29.5%. The negative logarithm of the IC50 (pIC50) (curve of compound) is 6.04 and 5.42 and 5.69.

These data come from PubChem BioAssay AID1963431 (Molecular Pharmacology Branch, DTP, NCI, 2024).
